Test results as given in article PMC5796218 (International Journal of Molecular Sciences, 2018).
Where a name gives a salt, the structure may show the parent alone. Read-outs that look alike come from different tables or passages of the source.

Columns and labels:
[1] = biological target: D1DR 175–188 peptide (dopamine receptor D1) (Homo sapiens, UniProt P21728); experiment: biochemical
[2] = biological target: D1DR 89–100 peptide (dopamine receptor D1) (Homo sapiens, UniProt P21728); experiment: biochemical
[3] = biological target: INSR 157–166 peptide (insulin receptor) (Homo sapiens, UniProt P06213); experiment: biochemical
Description: (§1) Each of these receptor peptides were made into individual stock solutions with a concentration of 1 mg/mL in pH 7.40 phosphate buffered saline solution (Fischer Scientific, Hampton, NH, USA). For each individual test, the stock solution was diluted to 0.1 or 0.2 mg/mL solution. […] The adrenergic or compounds were made up at 1.0 mM solutions and then serially diluted by thirds eleven times using phosphate buffer.
(§2) After the solutions were made, a 96-well quartz crystal plate was prepared to be run through the spectrophotometer at room temperature (approximately 24 °C). […] The absorbance of each receptor peptide without the presence of the adrenergic compound was measured as well. The absorbance of each well was measured at every 10-nm increment from 190–260 nm. The maximum absorbance that can be measured was set to be 4. Each well had 200 μL of solution, so if the absorbance of one component was being measured, it was diluted by half with phosphate buffer.
(§3) If the measured absorbance is different than the additive absorbance of each compound, then that indicates some sort of molecular interaction. The binding can be quantified by graphing the difference in absorbance against the concentration of the compound varied to provide a binding curve. The absorbance for the phosphate buffer is subtracted for each well before any calculations are done. […]

[4] = biological target: INSR 105–113 peptide (insulin receptor) (Homo sapiens, UniProt P06213); experiment: biochemical
Description: as §1, §2
(§4) If the measured absorbance is different than the additive absorbance of each compound, then that indicates some sort of molecular interaction. The binding can be quantified by graphing the difference in absorbance against the concentration of the compound varied to provide a binding curve. The absorbance for the phosphate buffer is subtracted for each well before any calculations are done. The data are analyzed by finding the additive absorbance, and plotting the difference between this absorbance and the actual absorbance against the concentration of the adrenergic compound. […] The binding constants were estimated from the half-saturation point at 200 nm since the absorbance differences tended to be maximized at this wavelength.

muOPR peptides = muOPR peptides (Homo sapiens, UniProt P35372); assay type: binding
Chain of muOPR peptides (P35372 with tags, fused parts or gaps): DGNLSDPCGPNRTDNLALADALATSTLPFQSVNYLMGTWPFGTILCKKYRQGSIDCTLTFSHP
Description: as §1, §2, §4

[5] = biological target: intact, purified human mu opioid receptor (muOPR) (Homo sapiens, UniProt P35372); experiment: biochemical; details: for binding to intact muOPR (in words): UV spectra, serial additions in Tris buffer
Chain of intact, purified human mu opioid receptor (muOPR) (P35372 whole entry): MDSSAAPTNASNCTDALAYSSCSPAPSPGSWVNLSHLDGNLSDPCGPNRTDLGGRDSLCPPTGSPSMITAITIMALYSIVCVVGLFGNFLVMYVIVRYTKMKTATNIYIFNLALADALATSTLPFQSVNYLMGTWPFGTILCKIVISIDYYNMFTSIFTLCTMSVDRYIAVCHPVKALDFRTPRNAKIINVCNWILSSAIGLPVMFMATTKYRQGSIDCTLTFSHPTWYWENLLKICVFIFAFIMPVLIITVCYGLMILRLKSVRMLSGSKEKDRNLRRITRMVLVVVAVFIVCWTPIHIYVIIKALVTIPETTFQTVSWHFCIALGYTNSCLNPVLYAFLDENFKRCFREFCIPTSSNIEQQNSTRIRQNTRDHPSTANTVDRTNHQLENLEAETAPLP
Description: MuOPR expression was achieved using the muOPR transformed C43 (DE3) cell strain of E. coli in Terrific Broth medium as reported earlier with 0.4 mM isopropyl β-D-1-thiogalactopyranoside induction at 18 °C for 24 h. Bacterial cell cultures were harvested by centrifugation at 4000× g for 20 min. Periplasmic fraction from the harvested cells was removed by osmatic shock. Cells were resuspended in 7 mL of lysis buffer (20 mM Tris-HCl pH 8.0, 150 mM NaCl, 10% glycerol, 2 mM MgCl2, 10 μM E-64, 1 μM pepstatin-A, 10 μM leupeptin, 1 mM pefabloc SC, 2 mM β-Mercaptoethanol, 1 mg/mL lysozyme, 30 U/mL DNase) per gram of cell pellet and incubated on ice for 30 min with continuous stirring. […] The solubilized membrane sample was centrifuged at 100,000× g for 1 h at 4 °C and the supernatant was collected. Imidazole was added to the supernatant to a final concentration of 5 mM before starting purification using Ni-NTA resin in batch mode as reported. Eluted fractions with muOPR were pooled, concentrated and subjected to size exclusion chromatography (SEC) using HiLoad 16/600 Superdex 200 pg column (GE Healthcare Sciences, Berlin, Germany) equilibrated with 20 mM Tris pH 8, 150 mM NaCl, 0.1% Fos12, 10% Glycerol and 1 mM TCEP. SEC elution fractions were analyzed by SDS-PAGE and western blotting with Monoclonal Anti-polyHistidine-Peroxidase antibody (Sigma-Aldrich) for protein presence and purity before use.
The spectrum of the wells was then recorded from 190 to 260 nm using a Spectramax plus scanning spectrophotometer (Molecular Devices, San Jose, CA, USA) using SOFTMax PRO software (Molecular Devices, San Jose, CA, USA). The procedure described above was repeated an additional eleven times using compound dilutions of increasing concentration each time.
Data were analyzed in Excel. The raw spectra were processed by averaging the three runs of each condition and then subtracting the absorbance of the buffer alone at each volume. The triplicate data for each experimental condition were averaged. The compound + buffer data were subtracted from the muOPR + compound data at each volume to leave the spectrum of the muOPR under that experimental condition. […] Because the final calculations involve several subtractions, error bars […].

[6] = biological target: MuOPR 121–131 peptide (mu opioid receptor) (Homo sapiens, UniProt P35372); experiment: biochemical
[7] = biological target: MuOPR 111–122 peptide (mu opioid receptor) (Homo sapiens, UniProt P35372); experiment: biochemical
[8] = biological target: B2AR 175–188 peptide (β-2-adrenergic receptor) (Homo sapiens, UniProt P07550); experiment: biochemical
Description: as §1, §2, §4

[9] = biological target: MuOPR 211–226 peptide (mu opioid receptor) (Homo sapiens, UniProt P35372); experiment: biochemical
[10] = biological target: HIST 105–115 peptide (histamine 1 receptor) (Homo sapiens, UniProt P35367); experiment: biochemical
[11] = biological target: B2AR 97–106 peptide (β-2-adrenergic receptor) (Homo sapiens, UniProt P07550); experiment: biochemical
Description: as §1, §2, §4

[12] = biological target: HIST 96–107 peptide (histamine 1 receptor) (Homo sapiens, UniProt P35367); experiment: biochemical
[13] = biological target: MuOPR 38–51 peptide (mu opioid receptor) (Homo sapiens, UniProt P35372); experiment: biochemical
[14] = biological target: MuOPR 132–143 peptide (mu opioid receptor) (Homo sapiens, UniProt P35372); experiment: biochemical
[15] = biological target: HIST 89–98 peptide (histamine 1 receptor) (Homo sapiens, UniProt P35367); experiment: biochemical
[16] = biological target: HIST 77–87 peptide (histamine 1 receptor) (Homo sapiens, UniProt P35367); experiment: biochemical
[17] = biological target: B2AR 93–100 peptide (β-2-adrenergic receptor) (Homo sapiens, UniProt P07550); experiment: biochemical
Description: as §1, §2, §4

[18] = biological target: B2AR 103–113 peptide (β-2-adrenergic receptor) (Homo sapiens, UniProt P07550); experiment: biochemical
Description: as §1, §2, §3

[19] = biological target: HIST 177–183 peptide (histamine 1 receptor) (Homo sapiens, UniProt P35367); experiment: biochemical
[20] = biological target: HIST 166–172 peptide (histamine 1 receptor) (Homo sapiens, UniProt P35367); experiment: biochemical
[21] = biological target: Met-enkephalin (Homo sapiens); experiment: UV spectroscopy; details: modification not given

CN1CC[C@]23c4c5ccc(O)c4O[C@H]2[C@@H](O)C=C[C@H]3[C@H]1C5 [Morph, morphine sulfate]
Kd [1]: 10 µM
Kd [2]: 20 µM

O=C(O)CN(CCN(CC(=O)O)CC(=O)O)CC(=O)O [EDTA, ethylenediaminetetraacetic acid]
Kd [3]: > 1000 µM
Kd [4]: > 1000 µM

O=C1O[C@H]([C@@H](O)CO)C(O)=C1O [ASC, ascorbic acid]
binding to the muOPR peptides (in words) (muOPR peptides; UV spectroscopy): did not bind
binding to intact muOPR (in words) [5]: No significant binding

Cc1cc2nc3c(=O)[nH]c(=O)nc-3n(C[C@H](O)[C@H](O)[C@H](O)CO)c2cc1C [RIBO, riboflavin]
Kd [6]: > 1000 µM
Kd [7]: > 1000 µM
Kd [8]: 500 µM
Kd [9]: > 1000 µM
Kd [10]: 450 µM
Kd [11]: 600 µM
Kd [12]: 500 µM
Kd [13]: 50 µM
Kd [14]: 100 µM
Kd [4]: 500 µM
Kd [15]: 400 µM
Kd [1]: 300 µM
Kd [16]: > 1000 µM
Kd [17]: 400 µM
Kd [2]: 600 µM

CC(=O)OCC[N+](C)(C)C [ACh, acetylcholine]
Kd [6]: > 1000 µM
binding to the muOPR peptides (in words) (muOPR peptides; UV spectroscopy): no measurable binding
Kd [7]: > 1000 µM
Kd [5]: > 1000 µM
Kd ([5]; Kd @ 210 nm (μM), 210 nm): > 1000 µM
binding to intact muOPR (in words) [5]: No significant binding
Kd [9]: > 1000 µM
Kd [13]: > 1000 µM
Kd [14]: > 1000 µM

NCCc1c[nH]c2ccc(O)cc12 [5HT, 5-hydroxytryptamine]
Kd [6]: 350 µM
Kd [7]: 100 µM
Kd [9]: 90 µM
Kd [13]: 100 µM
Kd [14]: 100 µM

NCCc1ccc(O)c(O)c1 [DOP, dopamine]
binding to the muOPR peptides (in words) (muOPR peptides): only displayed the low affinity binding

C=CCN1CC[C@]23c4c5ccc(O)c4O[C@H]2C(=O)CC[C@@]3(O)[C@H]1C5 [Nalox, naloxone]
Kd [18]: 3 µM
Kd [3]: 200 µM
Kd [8]: 40 µM
Kd [11]: 6 µM
Kd [4]: 20 µM
Kd [1]: 20 µM
Kd [17]: 5 µM
Kd [2]: 5 µM

OC[C@H]1OC(O)[C@H](O)[C@@H](O)[C@@H]1O (some centres unmarked) [GLUC, glucose]
Kd [18]: > 1000 µM
Kd [19]: > 1000 µM
Kd [6]: > 1000 µM
Kd [20]: > 1000 µM
Kd [7]: > 1000 µM
Kd [8]: > 1000 µM
Kd [9]: > 1000 µM
Kd [10]: > 1000 µM
Kd [11]: > 1000 µM
Kd [12]: > 1000 µM
Kd [13]: > 1000 µM
Kd [14]: > 1000 µM
Kd [15]: > 1000 µM
Kd [1]: > 1000 µM
Kd [16]: > 1000 µM
Kd [17]: > 1000 µM
Kd [2]: > 1000 µM

NCCc1c[nH]cn1 [Hist, histamine]
binding to the muOPR peptides (in words) (muOPR peptides): no measurable binding

KYRQGSIDCTLTFSHP
Kd [21]: 1 µM

NLALADALATST
Kd [21]: 80 µM

TLPFQSVNYL
Kd [21]: 90 µM
